Measurements: patent publication US20260265700A1, “NEURAL BIOHYBRID MANUFACTURED USING REDUCED GRAPHENE OXIDE NANOPARTICLES, NEUROMUSCULAR JUNCTION MODEL USING SAME, AND DRUG SCREENING METHOD USING SAME” (Sogang University Research & Business Development Foundation, priority 2023, published 2026)

System: NMJs manufactured using ALS neural biohybrids
Test: Muscle bundle contraction in 3D ALS-neuromuscular junction model
Format: cell-based, human
Details: ALS-NMJ
Procedure: First, a hydrogel used for the 3D muscle bundles was prepared using a mixture of 340 μl of C2C12, 30% Matrigel, 250 μl of 16 mg/ml […], 10 μl of thrombin (0.5 U/1 mg fibrinogen) and 100 μl of DMEM.
After culturing for 4 days, the medium was replaced with DMEM supplemented with 2% horse serum, 100 U/mL penicillin-G, 100 μg/mL streptomycin, 1 mg/mL aminocaproic acid, and 1 ng/mL insulin growth factor-1 (IGF-1) as a muscle cell differentiation medium. The medium was changed every 2 days, and differentiation was carried out for 14 days or more.
The co-culture differentiation medium, along with muscle differentiation medium, was supplemented with brain-derived and glial cell line-derived neurotrophic factors (10 ng/ml BDNF and 10 ng/ml GDNF) to support viability of multiple neural biohybrids. The differentiation medium was replaced every two days for two weeks.

`COc1cc(Nc2c(C#N)cnc3cc(OCCCN4CCN(C)CC4)c(OC)cc23)c(Cl)cc1Cl` [bosutinib] was tested, and the “contraction of the muscle bundle relative to muscle movement of normal NMJs” value (after 5 days of treatment, FIG. 3C) was “approximately 85%” and the “concentration giving the greatest recovery of muscle movement” value (various concentrations tested, FIGS. 3D and 3E) was 100 µM.
